Where two headings read alike, the source gives them in different places.
How the values were obtained:
[1] = test system: norepinephrine uptake; experiment: 3H-Norepinephrine Uptake in Rat Whole Brain Synaptosomes; format: biochemical; settings: 50 nM 3H-NE, 37° C., 5 minutes, read-out: IC50 (3H-norepinephrine uptake inhibition)
Protocol: ^3 H-Norepinephrine Uptake in Rat Whole Brain Synaptosomes
This assay is used as a biochemical screen for compounds that enhance adrenergic mechanism by blocking norepinephrine uptake.
A. Animals: Male CR Wistar rats (100-125 g).
1. Krebs-Henseleit Bicarbonate Buffer, pH 7.4 (KHBB). Make a 1 liter batch, containing the following salts.
2. 0.32M Sucrose: 21.9 g of sucrose, Q.S. to 200 ml.
3. A 0.1 mM stock solution of L(-)-Norepinephrine bitartrate is made up in 0.01N HCl. This is used to dilute the specific activity of radiolabeled NE.
4. Levo-[Ring-2,5,6-^3 H]-Norepinephrine (40-50 Ci/mmol) is obtained from New England Nuclear. The final desired concentration of ^3 H-NE in the assay is 50 nM. The dilution factor is 0.8; therefore the KHBB is made up to contain 62.5 nM [^3 H]-NE. Add to 100 ml of KHBB:
5. For most assays, a 1 mM stock solution of the test compound is made up in suitable solvent and serially diluted such that the final concentration in the assay ranges from 2×10^-8 to 2×10^-5 M. Seven concentrations are used for each assay. Higher or lower concentrations may be used depending on the potency of the test compound.
Male Wistar rats are decapitated and brains rapidly removed. Either whole brain minus cerebella or hypothalamus is weighed and homogenized in 9 volumes of ice-cold 0.32M sucrose using a Potter-Elvejhem homogenizer. Homogenization should be done with 4-5 up and down strokes at medium speeds to minimize synaptosome lysis. The homogenate is centrifuged at 1000 g for 10 min at 0°-4° C. The supernatant (S1) is decanted and is used for uptake experiments.
800 μl: KHBB containing [^3 H]-NE
20 μl: Vehicle or appropriate drug concentration
200 μl: Tissue suspension
Tubes are incubated at 37° C. under a 95% O2 /5% CO2 atmosphere for 5 minutes. For each assay, 3 tubes are incubated with 20 μl of vehicle at 0° C. in an ice bath. After incubation all tubes are immediately centrifuged at 4000 g for 10 minutes. […] The tubes are vigorously vortexed, decanted into scintillation vials, and counted in 10 ml of Liquiscint scintillation counting cocktail. […]

[2] = test system: Scopolamine Induced Memory Deficit; format: in vivo, mice
Protocol: In this assay mice are tested for their ability to remember an unpleasant stimulus for a period of 24 hours. A mouse is placed in a chamber that contains a dark compartment; a strong incandescent light drives it to the dark compartment, where an electric shock is administered through metal plates on the floor. The animal is removed from the testing apparatus and tested again, 24 hours later, for the ability to remember the electric shock.
If scopolamine, an anticholinergic that is known to cause memory impairment, is administered before an animal's initial exposure to the test chamber, the animal re-enters the dark compartment shortly after being placed in the test chamber 24 hours later. This effect of scopolamine is blocked by an active test compound, resulting in a greater interval before-re-entry into the dark compartment.
The results for an active compound are expressed as the percent of a group of animals in which the effect of scopolamine is blocked, as manifested by an increased interval between being placed in the test chamber and re-entering the dark compartment.
Results of this assay for some of the compounds of this invention and those for tacrine and pilocarpine (reference compounds) are presented in Table 2.

[3] = molecular target: T1, Brain AChE (acetylcholinesterase, rat striatum) (Rattus norvegicus, UniProt P37136); experiment: biochemical; settings: rat striatum homogenate; 5 mM acetylthiocholine; pH 7.2; 10 min preincubation at 37° C.; read-out: Inhibitory Concentration, Brain AChE
T1 construct: corpora striata dissected free, weighed and homogenized in 19 volumes; from tissue; host or cells: corpora striata of male Wistar rats, crude homogenate
T1 sequence (P37136 32-614): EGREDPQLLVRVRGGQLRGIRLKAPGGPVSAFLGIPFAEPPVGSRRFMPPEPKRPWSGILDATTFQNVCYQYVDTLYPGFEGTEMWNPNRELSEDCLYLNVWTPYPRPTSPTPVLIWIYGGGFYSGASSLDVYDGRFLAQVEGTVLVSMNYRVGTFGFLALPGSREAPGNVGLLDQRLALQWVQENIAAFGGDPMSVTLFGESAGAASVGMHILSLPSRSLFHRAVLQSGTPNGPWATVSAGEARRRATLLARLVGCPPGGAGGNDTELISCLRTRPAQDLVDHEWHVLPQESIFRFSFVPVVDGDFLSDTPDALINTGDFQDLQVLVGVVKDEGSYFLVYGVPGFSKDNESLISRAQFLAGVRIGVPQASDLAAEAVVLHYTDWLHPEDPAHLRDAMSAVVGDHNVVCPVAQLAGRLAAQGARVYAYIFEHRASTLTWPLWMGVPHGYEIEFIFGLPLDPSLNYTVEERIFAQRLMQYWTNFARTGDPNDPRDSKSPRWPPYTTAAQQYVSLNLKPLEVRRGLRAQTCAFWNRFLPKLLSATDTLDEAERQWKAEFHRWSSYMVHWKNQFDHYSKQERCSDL
From the text: Cholinesterases are found throughout the body, both in the brain and in serum. However, only brain acetylcholinesterase (AChE) distribution is correlated with central cholinergic innervation. […] We have determined in vitro inhibition of acetylcholinesterase activity in rat striatum according to the method described below.
In Vitro Inhibition of Acetylcholinesterase Activity in Rat Striatum
The method described below was used in this invention for assaying anticholinesterase activity. This is a modification of the method of Ellman et al., Biochem. Pharmacol. 7, 88 (1961).
1. 0.05M Phosphate buffer, pH 7.2
(a) 6.85 g NaH2 PO4 .cndot.H2 O/100 ml distilled H2 O
(c) add (a) to (b) until pH reaches 7.2
4. A 2 mM stock solution of the test drug is made up in a suitable solvent and q.s. to volume with 0.5 mM DTNB (reagent 3). Drugs are serially diluted (1:10) such that the final concentration (in cuvette) is 10^-4 M and screened for activity. If active, IC50 values are determined from the inhibitory activity of subsequent concentrations.
Enzyme activity is measured with the Beckman DU-50 spectrophotometer. This method can be used for IC50 determinations and for measuring kinetic constants.
This program also calculates the rate of absorbance change for each cuvette.
Substrate concentration is 10 mM diluted 1:2 in assay yielding final concentration of 5 mM.

With `CNCCC=C1c2ccccc2CCc2ccccc21` [Nortriptyline] the IC50 [1] was 4 µM.

In the case of `CC[C@@H]1C(=O)OC[C@@H]1Cc1cncn1C` [Pilocarpine, reference compound], the “% of Animals with Scopolamine Induced Memory Deficit Reversal” value (“% of Animals” below) ([2]; mice, 5.0 mg/kg of body weight, s.c., retest 24 hours) is reported as 13%.

In the case of `CNC(=O)Oc1ccc2c(ccn2N2CCOc3cnccc32)c1` [1-(Pyrido-[3,4-b]-1,4-oxazin-4-yl)-1H-indol'-5-yl methylcarbamate], the IC50 [3] is reported as 54 nM, the “% of Animals” value ([2]; mice, 0.01 mg/kg of body weight, s.c., retest 24 hours) is reported as 27% and the “% of Animals” value ([2]; mice, 0.03 mg/kg of body weight, s.c., retest 24 hours) is reported as 20%. The “% of Animals” value ([2]; mice, 0.10 mg/kg of body weight, s.c., retest 24 hours) was 33%.

In the case of `Cc1cn(N2CCOc3cnccc32)c2ccccc12` [4-(3-Methyl-1H-indol-1-yl)-pyrido[3,4-b]-1,4-oxazine], the IC50 [1] is reported as 6 µM.

In the case of `Nc1c2c(nc3ccccc13)CCCC2` [Tacrine, reference compound], the “% of Animals” value ([2]; mouse, in vivo, sc, 0.63 mg/kg) is reported as 13%.

`CN(C)CCC=C1c2ccccc2CCc2ccccc21` [Amitriptyline] showed an IC50 [1] of 7.7 µM.
